Reference: patent US6586440B2, “Pharmaceutical compositions of 5-alkynyl uracil compounds” (SmithKline Beecham Corporation, priority 1990, dated 2003)
Where two headings read alike, the source gives them in different places.

What was measured:
[1] = molecular target: T1, Uracil reductase (dihydropyrimidine dehydrogenase, EC 1.3.1.2) (Bos taurus, UniProt Q28007); assay: Determination of uracil reductase inactivation; assay type: biochemical, bovine; details: for inhibition at 100 µM: 0.5 h; for relative first-order rate constants for inactivation of enzyme (parenthetical values): fractional activity as a function of time of incubation of 50 μM inactivator with enzyme
T1 construct: (dihydropyrimidine dehydrogenase, EC 1.3.1.2) purified from bovine live; from tissue; host or cells: bovine liver ('bovine live' [sic])
T1 sequence (Q28007 1-1025): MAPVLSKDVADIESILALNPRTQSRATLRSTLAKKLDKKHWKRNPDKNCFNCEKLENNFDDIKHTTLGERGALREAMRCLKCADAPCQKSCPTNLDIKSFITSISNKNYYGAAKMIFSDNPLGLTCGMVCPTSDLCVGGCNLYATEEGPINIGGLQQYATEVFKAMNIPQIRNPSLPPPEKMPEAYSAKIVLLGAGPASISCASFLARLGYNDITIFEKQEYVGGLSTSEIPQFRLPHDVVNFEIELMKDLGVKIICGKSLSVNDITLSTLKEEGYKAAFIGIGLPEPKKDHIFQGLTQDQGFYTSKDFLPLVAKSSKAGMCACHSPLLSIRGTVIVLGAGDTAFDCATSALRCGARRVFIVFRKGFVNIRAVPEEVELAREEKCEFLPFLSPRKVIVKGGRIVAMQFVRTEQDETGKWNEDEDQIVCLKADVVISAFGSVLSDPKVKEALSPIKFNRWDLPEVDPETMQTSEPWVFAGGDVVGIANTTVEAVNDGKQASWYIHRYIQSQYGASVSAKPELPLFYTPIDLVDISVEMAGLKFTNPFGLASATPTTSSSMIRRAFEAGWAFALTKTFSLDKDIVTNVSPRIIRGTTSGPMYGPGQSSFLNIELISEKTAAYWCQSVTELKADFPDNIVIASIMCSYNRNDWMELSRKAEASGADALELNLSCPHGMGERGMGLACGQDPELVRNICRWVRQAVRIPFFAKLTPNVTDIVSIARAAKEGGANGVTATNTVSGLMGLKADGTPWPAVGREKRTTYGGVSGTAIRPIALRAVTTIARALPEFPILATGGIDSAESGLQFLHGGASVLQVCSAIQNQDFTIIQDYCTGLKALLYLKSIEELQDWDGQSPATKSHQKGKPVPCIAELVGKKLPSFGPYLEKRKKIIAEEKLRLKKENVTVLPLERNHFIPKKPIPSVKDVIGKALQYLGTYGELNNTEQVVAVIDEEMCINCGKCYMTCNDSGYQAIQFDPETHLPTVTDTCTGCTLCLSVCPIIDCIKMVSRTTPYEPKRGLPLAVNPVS
Description: Determination of Uracil Reductase Inactivation
Uracil reductase (1 μM) (dihydropyrimidine dehydrogenase, EC 1.3.1.2) purified from bovine live was incubated with 100 μM inactivator and 5 mM dithiothreitol (enzyme reductant) at 37° for 30 minutes in 0.05 M Tris-HCL at pH 8.0. The enzyme and inactivator were diluated 100-fold into the assay buffer, which contained 200 μM NADPH, 200 μM thymine and 1 μM dithiothreitol in Tris-HCl at pH 8.0. The velocity of the enzyme was determined spectrophotometrically. These velocities have been corrected for NADPH oxidase activity, which was less than 10% of the rate of thymine-dependent oxidation of NADPH. The % inactivation of the enzyme was equal to 100% minus the percent of enzymatic activity remaining. Enzyme incubated without inhibitor was stable under these conditions. Parenthetical values are the relative first-order rate constants for inactivation of enzyme determined from similar experiments where the fractional activity was measured as a function of the time of incubation of 50 μM inactivator with enzyme.

Male mice = assay: Protection from zidovudine toxicity in mice; assay type: in vivo
Description: Male mice were doses p.o. with 1000 mg/kg/day of zidovudine for 30 days either alone, or 1.5 hours after dosing with 2 mg/kg/day of 5-ethynyluracil (5-EU). Other groups of mice (a) were dosed with 2 mg/kg/day of 5-ethynyluracil alone; and (b) served as controls, receiving neither zidovudine nor 5-ethynyluracil. Levels of haematocrit, haemoglobin and red blood cells were determined.

[2] = 1 μM enzyme incubated with 100 μM inactivator and 5 mM dithiothreitol, 37°, 30 minutes, pH 8.0, then diluted 100-fold into assay buffer, read-out: % Inactivation
[3] = male mice, p.o., 30 days, zidovudine 1000 mg/kg/day, 5-EU 2 mg/kg/day, given 1.5 hours before zidovudine in the combination

inhibition at 100 µM [1, 2] [%]	relative first-order rate constants for inactivation of enzyme (parenthetical values) [1]	Compound	further results
100	(5)	C=C(Cl)c1c[nH]c(=O)[nH]c1=O [5-(1-chlorovinyl)uracil]	–
68	–	O=c1[nH]cc(C(Cl)=CBr)c(=O)[nH]1 [5-(2-bromo-1-chlorovinyl)uracil]	–
100	(14)	N#Cc1c[nH]c(=O)[nH]c1=O [5-cyanouracil]	–
100	(100)	C#Cc1c[nH]c(=O)[nH]c1=O [5-ethynyluracil, 5-Ethynyluracil]	HEMATOCRIT (Male mice; [3]): 45.9%; HEMOGLOBIN (Male mice; [3]): 15.1 g/dL; RED BLOOD CELLS (Male mice; [3]): 9.1 million/µL; prevention of red-blood cell anaemia induced by treatment with zidovudine (Male mice; mice): at least partially prevented
86	–	C=Cc1c[nH]c(=O)[nH]c1=O [5-vinyluracil]	–
100	(4)	O=c1[nH]cc(I)c(=O)[nH]1 [Example 5-iodouracil, 5-iodouracil]	–

Continued, molecule first:

Compound	inhibition at 100 µM [1, 2] [%]	relative first-order rate constants for inactivation of enzyme (parenthetical values) [1]	further results
O=c1[nH]cc(Br)c(=O)[nH]1 [5 -bromouracil, 5-bromouracil]	–	–	inhibition at 100 µM ([1]; pH 8, read-out: % Inactivation): 75%
O=c1[nH]cc(C#CBr)c(=O)[nH]1 [5-bromoethynyluracil]	100	(8)	–
O=c1[nH]cc(C=CBr)c(=O)[nH]1 [5-bromovinyluracil]	93	–	–
CCCCC#Cc1c[nH]c(=O)[nH]c1=O [5-hex-1-ynyluracil]	90	–	–
CC#Cc1c[nH]c(=O)[nH]c1=O [5-propynyluracil, 5-Propynyluracil]	100	(8)	melting point: 275 to 280 °C (dec.)
O=c1[nH]cc(C(F)(F)F)c(=O)[nH]1 [5-trifluorouracil]	–	–	% Inactivation ([1]; 1 μM enzyme incubated with 100 μM inactivator and 5 mM dithiothreitol, 37°, 30 minutes, pH 8.0, then diluted 100-fold into assay buffer): 75%
